These are literature values, as cited in article PMC9697394, “Recent Synthesis, Characterization, and Pharmacological Evaluation of Multifunctional Hemorphins Containing Non-Natural Amino Acids with Potential Biological Importance” (Pharmaceuticals, 2022).

Where no end group is shown, it is not given here.

Data set [1] deals with rat. The note with it: Barnes circular maze in rat; 100 pmol. An excerpt:
(§1) Table 5 Bioactive hemorphin peptides. | column: Effect

The conditions of data set [2]: at the spinal level; 27.2 nmol i.t.
From the text: as §1

In data set [3] the test system is WK rats and SHRs. The note with it: radiotelemetry in WK rats and SHRs; 100 µg/kg.
From the text: as §1

Data set [4] deals with rat. The note with it: rat blood pressure assay. An excerpt: Table 5 Bioactive hemorphin peptides. | column: Concentration/Dose; Effect
The target of data set [5] is rat mu-opioid receptor. The note with it: merged cell of Table 5; read-out: IC50, binds to rat mu-opioid receptor. An excerpt: (§2) Table 5 Bioactive hemorphin peptides. | column: Concentration/Dose
The subject of data set [6] is guinea pig ileum muscle preparation. The note with it: merged cell of Table 5, read-out: IC50, inhibition of the electrically induced contractions.
From the text: as §2

The test system of data set [7] is L929 and K562 tumor cells. Conditions: 10^−7–10^−13 M concentration range.
From the text: as §1

Data set [8] deals with cerebellar Purkinje cells. The note with it: in vitro cerebellar Purkinje cells.
From the text: as §1

In data set [9] the test system is tumor (L929 and A549) cell cultures. The note with it: 0.5 µM epirubicin added 24 h prior to 1 µM valorphin; 1 µM valorphin added 48 h prior to 0.1 µM epirubicin.
From the text: as §1

Data set [10] has as its system mice; rat. Conditions: hot plate, tail flick test in mice; Randall–Selitto test in rat.
From the text: as §1
(Thermal pain tests record how soon the animal reacts.)

In the case of “Leu-Val-Val-Tyr-Pro-Trp-Thr-Gln-Arg-Phe [LVV-hemorphin-7]”, the “effect on spatial learning (in words)” value in data set [1] is given as “enhanced spatial learning”. Further, the “effect on carrageenan-induced hyperalgesia (in words)” value in data set [2] is listed as “decrease”. Besides, the “effect on blood pressure (in words)” value in [3] was “Reduce blood pressure”. For the same substance, the “cardiovascular activity (in words)” value in data set [4] is “pressor and tachycardic activities mediated by the SNS”. The ED25 in [4] (pressor activity) was 128.0 nmol/kg.

VVYPWTQ [Valorphin]: the results for the concentration for half-maximal inhibition (IC50) in data set [5] and in data set [6] were 0.014 µM and 10 µM, respectively. For the same substance, the “effect on tumor cells (in words)” value in [7] is given as “Tumor cell cytolysis”. Further, the “effect on spontaneous firing (in words)” value in data set [8] is “inhibition of the spontaneous firing”. Moreover, the cell death in data set [9] is 100%. For the same substance, the “analgesic effect (in words)” value in data set [10] was “opioid analgesic activity”.
